Measured values published in US20240024273A1, “TOPICAL ADMINISTRATION OF 2-(DIETHYLAMINO)ETHYL 2-(4-ISOBUTYLPHENYL)PROPRIONATE FOR TREATMENT OF DISEASES” (TECHFIELDS PHARMA CO., LTD., priority 2020, published 2024).

Key:
Acetic Acid Induced Pain = assay: Acetic acid induced pain (writhing); type: in vivo, ICR mice
rats = assay: Acute dermal maximum tolerated dose study; type: in vivo; conditions: single dermal dose 1000 mg/kg
[1] = test system: Mild to Moderate Osteoarthritis of the Knee; assay: Phase 2 study: use of rescue medication (paracetamol); type: in vivo, human
Procedure: Subjects taking nonsteroidal anti-inflammatory drugs (NSAID) or other analgesics may enroll in the trial, but will discontinue any analgesic therapy for the duration of the study, starting at least 4 days (or 5 half lives, whichever is longer) prior to administration of the first dose of study medication (i.e., for an analgesic washout period before Day 1). Subjects will be allowed to take rescue medication (up to six 325 mg tablets [total of 1950 mg] of acetaminophen per day; provided by the Sponsor) for residual knee or other body pain starting 4 days (or 5 half lives, whichever is longer) prior to administration of the first dose of study medication except during the 24 hours prior to Baseline (Day 1), Week 2, Week 4, Week 8, Week 12/end of study (EOS), and Follow up assessments.
Subjects will record the following information in a Daily Diary starting at Screening: the amount of knee pain in the target knee while walking during the preceding 24 hours (using a 100 mm visual analog scale [VAS]), the times and number of sprays for each administration of study medication, the times when the subject washes his/her knees and/or takes a shower, the number of tablets of rescue medication taken that day and the times taken, the reason for taking the rescue medication (e.g., knee pain, headache, low back pain), any other concomitant medications taken that day, and any AEs occurring that day.
3.9.3. Exploratory Efficacy Endpoints: • 1. Subject's global assessment of disease status of the target knee at 2, 4, 8, and 12 weeks of treatment; • 2. Investigator's global assessment of disease status of the target knee at 2, 4, 8, and 12 weeks of treatment; • 3. Subject's global assessment of response to therapy of the target knee at 2, 4, 8, and 12 weeks of treatment; • 4. Investigator's global assessment of response to therapy of the target knee at 2, 4, 8, and 12 weeks of treatment; • 5. Change from Baseline over time in VAS pain scores for the target knee from Daily Diary data; • 6. Amount of rescue medication (acetaminophen) consumed per day for target knee pain.
Zeidler thought that paracetamol as rescue medication in nearly all OA trials may be a missing link to explain at least partially the large placebo response in OA trials. (Henning Zeidler, Paracetamol and the Placebo Effect in Osteoarthritis Trials: A Missing Link? Pain Research and Treatment, Volume 2011, 1-6.) From published data, the difference of the used amount of paracetamol is very small between the placebo and active drug cohorts. […] (T. J. Schnitzer, A. Kivitz, H. Frayssinet, and B. Duquesroix, “Efficacy and safety of naproxcinod in the treatment of patients with osteoarthritis of the knee: a 13-week prospective, randomized, multicenter study.” Osteoarthritis and Cartilage, vol. 18, no. 5, pp. 629-639, 2010.) In this trial, NSAIDs or any analgesic therapy was discontinued for the duration of the study, starting at least 14 days (or 5 half lives, whichever is longer) prior to administration of the first dose of study medication (ie, for an analgesic washout period before Day 1). Subjects were allowed to take rescue medication (up to six 325 mg tablets [total of 1950 mg] of acetaminophen per day; provided by the Sponsor) for residual knee or other body pain starting at least 4 days (or 5 half lives, whichever is longer) prior to administration of the first dose of study medication except during the 24 hours prior to Baseline (Day 1), Week 2, Week 4, Week 8, Week 12/end of study (EOS), and Follow-up assessments.

[2] = for all pain and other conditions, 8.75 mg/knee (BID), Week 2
[3] = for all pain and other conditions, 8.75 mg/knee (BID), Week 4
[4] = for all pain and other conditions, 8.75 mg/knee (BID), Week 8
[5] = for all pain and other conditions, 8.75 mg/knee (BID), Week 12
[6] = for all pain and other conditions, 17.5 mg/knee (BID), Week 2

CCN(CC)CCOC(=O)C(C)c1ccc(CC(C)C)cc1 (centres unmarked) [2-(diethylamino)ethyl 2-(4-isobutylphenyl)propionate]
inhibitory effect compared with Vehicle (Acetic Acid Induced Pain; high dose): 2-(4-isobutylphenyl)propionate showed significant inhibitory effect | inhibitory effect (Acetic Acid Induced Pain; low dose): 2-(4-isobutylphenyl)propionate did not show any inhibitory effect in this | tolerability (rats): 2-(4-isobutylphenyl)propionate to rats at 1000 mg/kg was well tolerated | patients using rescue medication at the end of the study ([1]; 8.75 mg/knee): 17.3% | Rescue medication (paracetamol) only for knee pain, daily amount ([1]; 8.75 mg/knee (BID), Day −2 to day −5 (baseline)): 349 mg/day/patient | Rescue medication (paracetamol) only for knee pain, daily amount ([1]; 8.75 mg/knee (BID), Week 2): 216 mg/day/patient | Rescue medication (paracetamol), % of decrease from baseline ([1]; 8.75 mg/knee (BID), Week 2): 38.1% | Rescue medication (paracetamol) only for knee pain, daily amount ([1]; 8.75 mg/knee (BID), Week 4): 167 mg/day/patient | Rescue medication (paracetamol), % of decrease from baseline ([1]; 8.75 mg/knee (BID), Week 4): 52.1% | Rescue medication (paracetamol) only for knee pain, daily amount ([1]; 8.75 mg/knee (BID), Week 8): 166 mg/day/patient | Rescue medication (paracetamol), % of decrease from baseline ([1]; 8.75 mg/knee (BID), Week 8): 52.4% | Rescue medication (paracetamol) only for knee pain, daily amount ([1]; 8.75 mg/knee (BID), Week 12): 159 mg/day/patient | Rescue medication (paracetamol), % of decrease from baseline ([1]; 8.75 mg/knee (BID), Week 12): 54.4% | patients using rescue medication at the end of the study ([1]; 17.5 mg/knee): 6.5% | Rescue medication (paracetamol) only for knee pain, daily amount ([1]; 17.5 mg/knee (BID), Day −2 to day −5 (baseline)): 243 mg/day/patient | Rescue medication (paracetamol) only for knee pain, daily amount ([1]; 17.5 mg/knee (BID), Week 2): 86 mg/day/patient | Rescue medication (paracetamol), % of decrease from baseline ([1]; 17.5 mg/knee (BID), Week 2): 64.6% | Rescue medication (paracetamol) only for knee pain, daily amount ([1]; 17.5 mg/knee (BID), Week 4): 67 mg/day/patient | Rescue medication (paracetamol), % of decrease from baseline ([1]; 17.5 mg/knee (BID), Week 4): 72.4% | Rescue medication (paracetamol) only for knee pain, daily amount ([1]; 17.5 mg/knee (BID), Week 8): 54 mg/day/patient | Rescue medication (paracetamol), % of decrease from baseline ([1]; 17.5 mg/knee (BID), Week 8): 77.8% | Rescue medication (paracetamol) only for knee pain, daily amount ([1]; 17.5 mg/knee (BID), Week 12): 56 mg/day/patient | Rescue medication (paracetamol), % of decrease from baseline ([1]; 17.5 mg/knee (BID), Week 12): 77.0% | use of rescue medication for all pain and other conditions ([1]; 17.5 mg/knee and 35 mg/knee groups, week 12): less than 100 mg/day/patient | patients using rescue medication at the end of the study ([1]; 35 mg/knee): 5.8% | Rescue medication (paracetamol) only for knee pain, daily amount ([1]; 35 mg/knee (BID), Day −2 to day −5 (baseline)): 291 mg/day/patient | Rescue medication (paracetamol) only for knee pain, daily amount ([1]; 35 mg/knee (BID), Week 2): 98 mg/day/patient | Rescue medication (paracetamol), % of decrease from baseline ([1]; 35 mg/knee (BID), Week 2): 66.3% | Rescue medication (paracetamol) only for knee pain, daily amount ([1]; 35 mg/knee (BID), Week 4): 88 mg/day/patient | Rescue medication (paracetamol), % of decrease from baseline ([1]; 35 mg/knee (BID), Week 4): 69.8% | Rescue medication (paracetamol) only for knee pain, daily amount ([1]; 35 mg/knee (BID), Week 8): 54 mg/day/patient | Rescue medication (paracetamol), % of decrease from baseline ([1]; 35 mg/knee (BID), Week 8): 81.4% | Rescue medication (paracetamol) only for knee pain, daily amount ([1]; 35 mg/knee (BID), Week 12): 44 mg/day/patient | Rescue medication (paracetamol), % of decrease from baseline ([1]; 35 mg/knee (BID), Week 12): 84.9% | Daily amount of rescue medication (paracetamol) ([1]; for all pain and other conditions, 8.75 mg/knee (BID), Day −2 to day −5 (baseline)): 364 mg/day/patient | Daily amount of rescue medication (paracetamol) [1, 2]: 263 mg/day/patient | Rescue medication (paracetamol), % of decrease from baseline [1, 2]: 27.7% | Daily amount of rescue medication (paracetamol) [1, 3]: 208 mg/day/patient | Rescue medication (paracetamol), % of decrease from baseline [1, 3]: 42.9% | Daily amount of rescue medication (paracetamol) [1, 4]: 210 mg/day/patient | Rescue medication (paracetamol), % of decrease from baseline [1, 4]: 42.3% | Daily amount of rescue medication (paracetamol) [1, 5]: 209 mg/day/patient | Rescue medication (paracetamol), % of decrease from baseline [1, 5]: 42.6% | Daily amount of rescue medication (paracetamol) ([1]; for all pain and other conditions, 17.5 mg/knee (BID), Day −2 to day −5 (baseline)): 278 mg/day/patient | Daily amount of rescue medication (paracetamol) [1, 6]: 136 mg/day/patient | Rescue medication (paracetamol), % of decrease from baseline [1, 6]: 51.1% | Daily amount of rescue medication (paracetamol) ([1]; for all pain and other conditions, 17.5 mg/knee (BID), Week 4): 115 mg/day/patient
